From patent EP2682005A1, “A dietary supplement composition” (Symrise AG, priority 2012, dated 2014)

Tests used:
Type in all cases: biochemical
[1] = Activity against free radicals, Method B (hydroxyl radicals from hydrogen peroxide with iron (II) ions and EDTA, desoxyribose oxidation); conditions: optical density at 532 nm
Method: (§1) The effectiveness of the test substances against free radicals was tested by various chemical and biochemical methods: Method A A first test was carried out using diphenylpicrylhydrazyl (DPPH°) which is a relatively stable radical that forms a purple-coloured solution. The optical density (DO) at 513 nm was determined. Method B Hydroxyl radicals were released from hydrogen peroxide in the presence of iron (II) ions and EDTA and were used to oxidize desoxyribose. The oxidation product forms a pink-coloured compound with thiobarbituric acid. Its concentration corresponds to the optical density at 532 nm. A test was conducted to determine whether less desoxyribose is oxidized, i.e. whether fewer free radicals are released, in the presence of the test products. […] Method D Xanthine oxidase is an enzyme which is released through oxidative stress and catabolizes the decomposition of the purine bases adenine and guanine into uronic acid and superoxide anions. The superoxide anions dismute into hydrogen peroxide and oxygen either spontaneously or in the presence of Superoxid Dismutase. The quantity of superoxide anion can be determined by NBT reduction via the optical density at 490 nm. A test was conducted to determine whether fewer superoxide anions are generated or more anions are destroyed in the presence of the test substances. […]

[2] = Activity against free radicals, Method A (DPPH radical, optical density at 513 nm)
Method: The effectiveness of the test substances against free radicals was tested by various chemical and biochemical methods: Method A A first test was carried out using diphenylpicrylhydrazyl (DPPH°) which is a relatively stable radical that forms a purple-coloured solution. The optical density (DO) at 513 nm was determined. Method B Hydroxyl radicals were released from hydrogen peroxide in the presence of iron (II) ions and EDTA and were used to oxidize desoxyribose. The oxidation product forms a pink-coloured compound with thiobarbituric acid. Its concentration corresponds to the optical density at 532 nm. A test was conducted to determine whether less desoxyribose is oxidized, i.e. whether fewer free radicals are released, in the presence of the test products. […] Method D Xanthine oxidase is an enzyme which is released through oxidative stress and catabolizes the decomposition of the purine bases adenine and guanine into uronic acid and superoxide anions. The superoxide anions dismute into hydrogen peroxide and oxygen either spontaneously or in the presence of Superoxid Dismutase. The quantity of superoxide anion can be determined by NBT reduction via the optical density at 490 nm. A test was conducted to determine whether fewer superoxide anions are generated or more anions are destroyed in the presence of the test substances. The results are set out in Table 1 and represent the EC50 values in % (w/v).

[3] = molecular target: Xanthine oxidase (Homo sapiens, UniProt P47989); assay: Activity against free radicals, Method D (xanthine oxidase, superoxide anion by NBT reduction); conditions: optical density at 490 nm
Chain of Xanthine oxidase (P47989 whole entry, species assumed): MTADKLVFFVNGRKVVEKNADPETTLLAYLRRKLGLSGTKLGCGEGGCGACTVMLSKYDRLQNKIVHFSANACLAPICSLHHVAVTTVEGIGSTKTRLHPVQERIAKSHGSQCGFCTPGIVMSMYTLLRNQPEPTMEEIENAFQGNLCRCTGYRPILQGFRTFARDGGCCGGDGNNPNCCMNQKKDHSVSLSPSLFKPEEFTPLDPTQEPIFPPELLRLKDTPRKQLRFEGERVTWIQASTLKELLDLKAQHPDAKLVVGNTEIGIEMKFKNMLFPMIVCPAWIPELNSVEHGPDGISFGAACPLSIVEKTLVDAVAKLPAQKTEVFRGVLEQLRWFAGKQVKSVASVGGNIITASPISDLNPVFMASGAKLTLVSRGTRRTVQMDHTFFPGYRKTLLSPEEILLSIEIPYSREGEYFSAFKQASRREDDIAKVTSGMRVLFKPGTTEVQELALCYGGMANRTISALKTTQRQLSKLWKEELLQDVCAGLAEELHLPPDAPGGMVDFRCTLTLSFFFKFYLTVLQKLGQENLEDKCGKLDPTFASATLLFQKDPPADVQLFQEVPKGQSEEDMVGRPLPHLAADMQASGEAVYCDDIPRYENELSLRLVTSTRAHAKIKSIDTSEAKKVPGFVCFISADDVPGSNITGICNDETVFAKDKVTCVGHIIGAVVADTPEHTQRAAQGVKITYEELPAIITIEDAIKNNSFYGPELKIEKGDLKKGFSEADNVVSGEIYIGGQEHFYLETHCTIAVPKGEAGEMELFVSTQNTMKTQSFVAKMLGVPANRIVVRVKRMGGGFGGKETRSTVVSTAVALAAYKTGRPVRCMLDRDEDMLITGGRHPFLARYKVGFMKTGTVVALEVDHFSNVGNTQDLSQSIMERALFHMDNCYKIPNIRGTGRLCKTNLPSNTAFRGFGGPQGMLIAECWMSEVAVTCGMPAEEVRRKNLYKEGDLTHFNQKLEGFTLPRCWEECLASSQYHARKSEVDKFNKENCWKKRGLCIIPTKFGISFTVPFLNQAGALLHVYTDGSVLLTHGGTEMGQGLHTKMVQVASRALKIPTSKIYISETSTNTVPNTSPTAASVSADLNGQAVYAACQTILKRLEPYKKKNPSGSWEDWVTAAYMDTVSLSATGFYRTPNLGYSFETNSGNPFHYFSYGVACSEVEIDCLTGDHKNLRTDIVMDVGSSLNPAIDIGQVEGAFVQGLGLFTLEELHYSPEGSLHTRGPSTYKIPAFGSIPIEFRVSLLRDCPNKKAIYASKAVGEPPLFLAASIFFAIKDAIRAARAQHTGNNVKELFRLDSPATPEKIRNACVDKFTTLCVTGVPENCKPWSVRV
Method: The effectiveness of the test substances against free radicals was tested by various chemical and biochemical methods: Method A A first test was carried out using diphenylpicrylhydrazyl (DPPH°) which is a relatively stable radical that forms a purple-coloured solution. The optical density (DO) at 513 nm was determined. Method B Hydroxyl radicals were released from hydrogen peroxide in the presence of iron (II) ions and EDTA and were used to oxidize desoxyribose. The oxidation product forms a pink-coloured compound with thiobarbituric acid. Its concentration corresponds to the optical density at 532 nm. A test was conducted to determine whether less desoxyribose is oxidized, i.e. whether fewer free radicals are released, in the presence of the test products. […] Method D Xanthine oxidase is an enzyme which is released through oxidative stress and catabolizes the decomposition of the purine bases adenine and guanine into uronic acid and superoxide anions. The superoxide anions dismute into hydrogen peroxide and oxygen either spontaneously or in the presence of Superoxid Dismutase. The quantity of superoxide anion can be determined by NBT reduction via the optical density at 490 nm. A test was conducted to determine whether fewer superoxide anions are generated or more anions are destroyed in the presence of the test substances.
The results are set out in Table 1 and represent the EC50 values in % (w/v).

[4] = Activity against free radicals, Method C (desoxyribose oxidation in the absence of EDTA, forming inactive iron complexes); conditions: as Method B in the absence of EDTA
Method: as §1

Row | Compound | EC50, Method B [1] | EC50, Method A [2] | EC50, Method D [3] | EC50, Method C [4]
1 | O=C1O[C@H]([C@@H](O)CO)C(O)=C1O [Ascorbic acid] | 0.26 % (w/v) | 0.0013 % (w/v) | 0.59 % (w/v) | 0.9 % (w/v)
2 | Butylhydroxytoluol | – | 0.0500 % (w/v) | No effect | –
3 | Tocopherol | – | 0.0067 % (w/v) | No effect | –
